Reference: ChEMBL document CHEMBL1124304 (J Med Chem, 1988)

Experiments:
[1] = biological target: T1, Adenosine receptor A1 (Rattus norvegicus) (UniProt P25099); experiment: (§1) Reduction of heart rate (A1 response) in isolated rat heart preparation; type: functional, tissue-based
T1 sequence (whole entry): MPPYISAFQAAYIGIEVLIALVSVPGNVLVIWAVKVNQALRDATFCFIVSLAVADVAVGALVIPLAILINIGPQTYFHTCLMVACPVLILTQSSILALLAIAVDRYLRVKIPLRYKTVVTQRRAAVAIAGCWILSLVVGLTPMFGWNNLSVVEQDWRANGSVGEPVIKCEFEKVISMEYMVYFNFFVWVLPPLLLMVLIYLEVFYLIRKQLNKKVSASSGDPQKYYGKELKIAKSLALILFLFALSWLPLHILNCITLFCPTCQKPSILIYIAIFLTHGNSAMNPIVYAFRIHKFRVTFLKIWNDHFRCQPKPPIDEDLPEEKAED

[2] = biological target: T2, Adenosine A2 receptor (Rattus norvegicus) (UniProt P29276+P30543)
Adenosine receptor A1 = biological target: T3, Adenosine receptor A1 (Rattus norvegicus, UniProt P25099)
T3 sequence (P25099 whole entry): T1 sequence (whole entry)
Description: Binding affinity towards adenosine A1 receptor on rat whole brain membrane using [3H]N6-cyclohexyladenosine

Adenosine A2 receptor = Adenosine A2 receptor (Rattus norvegicus, UniProt P29276+P30543)
Description: Binding affinity towards adenosine A2 receptor on rat striatal membrane using [3H]NECA as radioligand

[3] = biological target: T2, Adenosine A2 receptor (Rattus norvegicus); remark: listed apart in the source
Rattus norvegicus [4] = species: Rattus norvegicus; experiment: Enhancement of coronary flow (A2 response) in isolated rat heart preparation; type: functional
Rattus norvegicus [5] = species: Rattus norvegicus; experiment: as §1; type: functional

EC25 [2] [nM] | Ki (Adenosine receptor A1) [nM] | Ki (Adenosine A2 receptor) [nM] | EC25 [3] [nM] | SMILES | EC25 [1] [nM] | EC25 (Rattus norvegicus [4]) [nM] | EC25 (Rattus norvegicus [5]) [nM]
35 |  |  |  | OC[C@H]1O[C@@H](n2cnc3c(NCc4ccccc4)ncnc32)[C@H](O)[C@@H]1O | 2300 |  | 
3 |  |  |  | Nc1nc(Nc2ccccc2)nc2c1ncn2[C@@H]1O[C@H](CO)[C@@H](O)[C@H]1O | 7000 |  | 
10 |  |  |  | OC[C@H]1O[C@@H](n2cnc3c(NCC(c4ccccc4)c4ccccc4)ncnc32)[C@H](O)[C@@H]1O | 90 |  | 
 | 320 | 4300 | 400 | OC[C@H]1OC(n2cnc3c(NCCC4c5ccccc5-c5ccccc54)ncnc32)[C@H](O)[C@@H]1O (stereo partly specified) | > 3000 |  | 
 |  |  | 2 | OC[C@H]1O[C@@H](n2cnc3c(NCC4c5ccccc5-c5ccccc54)ncnc32)[C@H](O)[C@@H]1O | 100 |  | 
 | 24 | 9.1 | 1.2 | OC[C@H]1O[C@@H](n2cnc3c(NCc4cccc5ccccc45)ncnc32)[C@H](O)[C@@H]1O | 400 |  | 
> 100 |  |  |  | OC[C@H]1O[C@@H](n2cnc3c(NC4CCCC4)ncnc32)[C@H](O)[C@@H]1O | 3 |  | 
 |  |  |  | CCNC(=O)[C@H]1O[C@@H](n2cnc3c(N)ncnc32)[C@H](O)[C@@H]1O [NECA] |  | 1.1 | 21
 | 160 | 390 |  | OC[C@H]1OC(n2cnc3c(NCC4c5ccccc5CCc5ccccc54)ncnc32)[C@H](O)[C@@H]1O (stereo partly specified) |  |  | 
70 |  | 160 |  | OC[C@H]1O[C@@H](n2cnc3c(NCCc4ccccc4)ncnc32)[C@H](O)[C@@H]1O | 300 |  | 
 | 9000 | 29000 |  | OC[C@H]1OC(n2cnc3c(NCc4c5ccccc5cc5ccccc45)ncnc32)[C@H](O)[C@@H]1O (stereo partly specified) |  |  | 
 | 6200 | 42000 |  | OC[C@H]1OC(n2cnc3c(NC4c5ccccc5-c5ccccc54)ncnc32)[C@H](O)[C@@H]1O (stereo partly specified) |  |  | 
13 |  |  |  | Nc1nc(Cl)nc2c1ncn2[C@@H]1O[C@H](CO)[C@@H](O)[C@H]1O | 170 |  | 
 | 62 | 48 | 2 | OC[C@H]1OC(n2cnc3c(NCC4c5ccccc5Oc5ccccc54)ncnc32)[C@H](O)[C@@H]1O (stereo partly specified) | 1200 |  | 
10 |  |  |  | C[C@H](Cc1ccccc1)Nc1ncnc2c1ncn2[C@@H]1O[C@H](CO)[C@@H](O)[C@H]1O | 13 |  | 
 | 12.3 | 230 | 30 | OC[C@H]1OC(n2cnc3c(NCCc4cccc5ccccc45)ncnc32)[C@H](O)[C@@H]1O (stereo partly specified) | 110 |  | 
